We go through four compounds from patent US9464097B2, “Gold complexes” (UNIVERSITY COURT OF THE UNIVERSITY OF ST. ANDREWS, priority 2010, dated 2016).

The pKa is the negative logarithm of the acid dissociation constant. What is called IC50 is the concentration at which inhibition is half-maximal. Read a high IC50 as weaker potency in that assay.

For data set [1] the following is noted: proton borne by the heteroatom, literature value; cited from earlier work.
A further data set has as its system human cancer cell lines. Nature of the data set: Cytotoxicity towards human cancer cell lines, overall comparison with cisplatin. The format is cell-based. Particulars: cytotoxicity across the tested cell lines. The method, then: (§1) Cytotoxicity assay: The compound/complex was dissolved in DMSO and diluted in DMSO. The final dilution was in the respective culture medium and the final concentration of DMSO was always below 0.01%. Cells were pipetted into microtitre plates (NUNC) at 4000 cells/well and incubated at 37° C. in 5% CO2 in air for 24 hr. Varying concentrations of the compounds/complexes were applied to the cells in 10 μl volumes. The plates were incubated for 3 days at 37° C. 5% CO2 in air. The viability of the cells was measured using the Dojindo kit CCK-8 (Cell counting Kit—8, Dojindo technologies USA, CK04-11) method after incubation for 3 hr in the absence of light. The plates were read on an ELISA plate reader at a wavelength of 450 nm.

Data set [2] has as its system LNCaP (prostate carcinoma) cell line. Description: Cytotoxicity assay (CCK-8 viability), LNCaP. The following applies: 3 days incubation. The format is cell-based, human. The method, then:
as §1

The subject of data set [3] is human urothelial cell line (SV-HUC-1). Nature of the data set: Cytotoxicity assay (CCK-8 viability), SV-HUC-1. The format is cell-based. Particulars: SV-HUC-1, 3 days incubation. The method, then: as §1

Turning to `Cc1ccc(O)cc1` [p-cresol (14b), p-cresol], in data set [1], the pKa is 18.9. Consider `CC(C)c1cccc(C(C)C)c1N1C=CN(c2c(C(C)C)cccc2C(C)C)[CH]1[Au][OH]` [complex 2, [Au(OH)(IPr)]], for which, in the data set with human cancer cell lines, the “Overall activity compared with cisplatin” value is “superior to that displayed by cisplatin”.

For `N.N.[Cl][Pt][Cl]` [cisplatin], the IC50 came to 18 µM in data set [2] and 25 µM in data set [3].

Turning to `Cc1ccc(S)cc1` [p-thiocresol (14a), p-thiocresol], the pKa in data set [1] is recorded as 10.3.
